Assay results from ChEMBL document CHEMBL1157392, “A cycloartane incorporating a fused tetrahydrofuran ring and a cytotoxic lactam from Monocarpia marginalis” (J Nat Prod, 2008).
Values after ≈ are worked out from the molar mass of the structure shown.

Columns and labels:
Type in all cases: functional, cell-based
KB = assay: Cytotoxicity against drug-sensitive human KB cells
[1] = Cytotoxicity against vincristine-resistant human KB/VJ300 cells
Jurkat = assay: Cytotoxicity against human Jurkat cells

SMILES | IC50 (KB) [µg/mL] | IC50 [1] [µg/mL] | IC50 (Jurkat) [µg/mL]
CC(C)=C1CC[C@H]([C@H]2CC[C@@]3(C)[C@@H]4CC[C@H]5C(C)(C)[C@@H](O)C(=O)C[C@@]56C[C@@]46CC[C@]23C)[C@H](O)C1 [MONOCARPINE] | > 5 | – | –
O=C1C=CC=C2C(=O)c3c4c(ccc3=C2N1)=CC=N4 [MONOMARGINE] | 4.7 (≈ 18.9 µM) | 3 (≈ 12.1 µM) | 0.7 (≈ 2.82 µM)
COc1cc2c(c3c1=CC=N3)C(=O)C1=CC=CC(=O)NC=21 [MONOMARGININE] | 4 (≈ 14.4 µM) | 2.6 (≈ 9.34 µM) | 0.4 (≈ 1.44 µM)
